Assay results from patent publication US4599325A, “Substituted tyrosyl alanine dipeptide amides” (G. D. Searle & Co., priority 1985, dated 1986).

What was measured:
mice = assay: Writhing assay (phenylbenzoquinone); format: in vivo, mouse; set-up: key to Writhing Mouse Subc., effect of the screening dose / Writhing Mouse Oral, effect of the screening dose: Active: The test compound was rated active if writhing was inhibited (as described) in 5 of 10 mice; conditions: Table 1; for Writhing Mouse Oral, effect of the screening dose: screening dose 10 mg/kg p.o.; for Writhing Mouse Subc., effect of the screening dose: screening dose 10 mg/kg s.c.
Protocol: Male Charles River albino mice (CD-1/HAM/1LR) weighing between 20 and 30 grams were used. Thirty minutes after subcutaneous or intragastric administration of the test compound (0.1 ml/10 gram body weight), 0.025% (w/v) phenylbenzoquinone was injected intraperitoneally (0.1 ml/10 gram body weight). Five minutes later, each mouse was placed in a large glass beaker and the number of writhes that occurred in the subsequent ten minutes is counted. A writhe consisted of dorsoflexion of the back, extension of the hindlimbs, and strong contraction of the abdominal musculature. The test compound was considered to have produced analgesia in a mouse if the number of writhes elicited by phenylbenzoquinone was equal to or less than one-half the median number of writhes recorded for the saline-treated group that day. The results were expressed as the number of mice (out of a possible ten) in which the test compound produced analgesia. The test compound was rated active if writhing was inhibited (as described) in 5 of 10 mice.
The receptor binding and biological properties of the following compounds of this invention are illustrated in Tables 1 and 2 utilizing the previously described opiate binding, hot plate, tail flick, writhing assay, cholera test or hypertensive test. The standard screening dose for the hot plate test of Table 1 was 10 mg/kg i.v. and for the writhing assay was 10 mg/kg s.c. and p.o.

opiate receptors = assay: Opiate binding assay (displacement of 3H-Naloxone); set-up: species or system rat; conditions: Table 1, 3H-Naloxone, rat brain membranes
Protocol: The test compounds were evaluated for their ability to displace the binding of ^3 H-Naloxone to opiate receptors isolate from rat brain. Male rats [COBS CD(SD)BR] obtained from Charles River Laboratories (Portage, MI) were sacrificed by cervical dislocation. A purified homogenate of receptor membranes was prepared from the brains according to the method described by Chang and Cuatrecasas. (K.-J. Chang and P. Cuatrecases. Multiple Opiate Receptors: Enkephalins And Morphine Bind To Receptors Of Different Specificity. J. Biol. Chem. 254, 2610-2618 (1979).) The brains were homogenized in 10 volumes of 0.32M sucrose and centrifuged twice at 6,000×g for 15 minutes. Following centrifugation of the supernatants at 40,000×g for 30 minutes, the pellets were allowed to swell, then centrifuged at 6,000 and 40,000×g. This process was repeated. The final pellet was resuspended in 2 volumes of 50 mM tris HCl (pH 7.4). The homogenate was assayed for protein content according to the method of Itzhaki and Gill. R. F. Itzhaki and D. M. Gill. A Micro-Biuret Method for Estimating Proteins. Anal. Biochem. 9, […] (1964).
The binding of the test compounds to the receptor membrane preparation was measured using a modification of the method of Pert and Snyder. C. B. Pert and S. H. Snyder. Properties of Opiate-Receptor Binding in Rat Brain. Proc. Natl. Acad. Sci. 70, 2243-2247 (1973). The receptor assay was run using 1 nM ^3 H-Naloxone and 2 ml of tissue homogenate (0.5 mg/ml protein concentration). Levorphanol (1×10^-5 M) was used as the displacer for non-specific binding. Both the displacer and the test compounds were added in 0.02 ml volumes. The assay was run in 0.05M tris HCl (pH 7.4) ±100 mM NaCl. Total assay volume was 2.03 ml.
Samples were incubated at 25° C. for 60 min., cooled on ice 5 min. and subsequently filtered over Whatman GF/C glass fiber filters with 2.4 ml washes of cold buffer. The filters were then solubilized in 1 ml of NCS at 50° C. for 1 hour. After solubilization, the pH was adjusted with 0.1 ml of glacial acetic acid, 10 ml of PCS was added and the samples were counted in a Nuclear Chicago Mark II liquid scintillation counter. This method was used for the following test compounds: Example 4, Example 5, Example 27, Example 28, Example 38, Example 39, and the prior art compound (4).
A modification of this method was used for the following test compounds: Example 16, Example 17, Example 21, Example 22, Example 24, Example 30, Example 31. In this modification, the total assay volume was adjusted to 1.0 ml. Samples were cooled on ice for 10 minutes and dried at 50° C. for 30 minutes, then 10 mls of PCS was added and the samples counted in a liquid scinitillation counter.
The IC50 values, the concentration of the test compounds which inhibited ^3 H-Naloxone specific binding to the opiate receptor by 50%, were obtained from log-probit plots of concentration-response curves. D. J. Finney. Probit Analysis. Cambridge University Press, London, 1947.

[1] = system: spontaneous hypertensive rats (SHR); assay: Hypertensive test in spontaneous hypertensive rats (SHR); format: in vivo, rat; set-up: key to Antihypertensive Properties, Result: Active: Any compound that resulted in a decrease in arterial blood pressure of 20 mm Hg or greater was considered active; conditions: Table 3; 10 mg/kg intravenously, one unanesthetized male SHR
Protocol: A compound's ability to act as an antihypertensive agent was determined using spontaneous hypertensive rats (SHR). Male SHR were maintained in-house for 1 or more weeks before use and were between 11 and 16 weeks old. The test compound was administered intravenously and the initial mean arterial blood pressure was measured directly via an arterial catheter implanted immediately before administration of the compound. Blood pressure readings were made 5, 10 and 15 minutes after administration of the compound. […] Statistical comparisons were made using the unpaired student's test.
The following compounds of the invention were evaluated for their antihypertensive properties using the spontaneous hypertensive rat (SHR). […] The SHR test was essentially that described earlier. Each compound listed in Table 3, was administered intravenously to one unanesthetized, male, spontaneously hypertensive rat; the dosage was 10 mg/kg.

| Compound | Writhing Mouse Oral, effect of the screening dose (mice) | Writhing Mouse Subc., effect of the screening dose (mice) | IC50 (opiate receptors) | Antihypertensive Properties, Result [1] | ED50 (mice; Mus musculus, sc, subcutaneous, read-out: Writhing Mouse Subc. (ED50)) | Writhing Mouse Oral (ED50) (mice; oral, hydrochloride) | IC50 (opiate receptors; hydrochloride) |
| --- | --- | --- | --- | --- | --- | --- | --- |
| 2,6-dimethyltyrosyl-N-(3-cyclohexylpropyl)-D-alaninamide, (2-methylpropyl)carbonate (ester) [Example 27] | Active | Active | 2.7 nM | – | – | – | – |
| 2,6-dimethyltyrosyl-N-(4-phenylbutyl)-D-alaninamide, hydrochloride [Example 43] | Active | Active | – | – | – | – | – |
| 2,6-dimethyltyrosyl-N-[3-(2,6-dimethylphenyl)propyl]-D-alaninamide hydrochloride [Example 38] | Active | Active | 160 nM | – | – | – | – |
| 2,6-dimethyltyrosyl-N-[3-(2,6-dimethylphenyl)propyl]-D-alaninamide, hydrochloride [Example 39] | Active | Active | 0.5 nM | – | – | – | – |
| 2-methyltyrosyl-N-(3-phenylpropyl)-D-alaninamide, hydrochloride [Example 16] | – | – | – | Active | – | – | – |
| Cc1cc(O)cc(C)c1C[C@H](N)C(=O)N[C@H](C)C(=O)NCCCc1ccccc1.Cl [Example 4, 2,6-dimethyltyrosyl-N-(3-phenylpropyl)-D-alaninamide hydrochloride] | – | – | – | Active | 0.58 mg/kg | 2.39 mg/kg | 50 nM |
